# Values quoted from earlier work as cited in patent US20220143046A1, “COMPOSITION AND METHODS FOR RECTAL DELIVERY OF 4-AAPA AND 5-ASA COMPOUNDS” (9 METERS BIOPHARMA, INC., priority 2019, published 2022).
# System: toxin A-induced colonic inflammation
# Conditions: rats; cited from earlier US patents and McVey et al. 2005
structure (smiles),measurement,value
"O=C(O)Cc1ccc(/N=N/c2ccc(O)c(C(=O)O)c2)cc1 [INN-108, 5-(4-carboxymethyl-phenylazo)-2-hydroxybenzoic acid]",inhibition of toxin A-induced colonic inflammation,potent inhibitor
